From the NIST ThermoML archive (doi:10.1007/s10765-010-0885-7)

Conditions: Gas, Spherical cavity resonance method

C=C(F)C(F)(F)F [2,3,3,3-tetrafluoro-1-propene]
Conditions	speed of sound [m/s]
278.15 K, 25.44 kPa	148.09
278.15 K, 50.62 kPa	147.25
278.15 K, 75.68 kPa	146.39
278.15 K, 101 kPa	145.51
278.15 K, 201.3 kPa	141.89
278.15 K, 300.48 kPa	138.02
293.15 K, 25.29 kPa	151.93
293.15 K, 50.99 kPa	151.19
293.15 K, 75.57 kPa	150.47
293.15 K, 101.23 kPa	149.72
293.15 K, 201.08 kPa	146.67
293.15 K, 292.42 kPa	143.72
293.15 K, 401.24 kPa	139.99
308.15 K, 25.26 kPa	155.68
308.15 K, 50.39 kPa	155.05
308.15 K, 75.5 kPa	154.42
308.15 K, 100.64 kPa	153.79
308.15 K, 200.87 kPa	151.18
308.15 K, 300.85 kPa	148.47
308.15 K, 398.92 kPa	145.68
323.15 K, 25.34 kPa	159.31
323.15 K, 50.23 kPa	158.76
323.15 K, 75.47 kPa	158.2
323.15 K, 100.59 kPa	157.64
323.15 K, 200.87 kPa	155.39
323.15 K, 300.93 kPa	153.07
323.15 K, 401.34 kPa	150.66
338.15 K, 25.37 kPa	162.84
338.15 K, 50.45 kPa	162.36
338.15 K, 75.5 kPa	161.87
338.15 K, 100.77 kPa	161.37
338.15 K, 200.63 kPa	159.42
338.15 K, 301.18 kPa	157.41
338.15 K, 407.01 kPa	155.23
353.15 K, 25.67 kPa	166.32
353.15 K, 50.67 kPa	165.86
353.15 K, 75.38 kPa	165.44
353.15 K, 100.55 kPa	165.01
353.15 K, 200.64 kPa	163.29
353.15 K, 299.53 kPa	161.57
353.15 K, 401.3 kPa	159.76
